Among the data in patent US20210214375A1 (LUNDBECK LA JOLLA RESEARCH CENTER, INC., priority 2017, published 2021) are IC50 and inhibition values, retold here.

Assay [1] deals with T1, MAGL (Homo sapiens, UniProt Q99685).
T1 construct: Proteomes (human prefrontal cortex or cell membrane fractions); from tissue
T1 sequence (Q99685 1-303): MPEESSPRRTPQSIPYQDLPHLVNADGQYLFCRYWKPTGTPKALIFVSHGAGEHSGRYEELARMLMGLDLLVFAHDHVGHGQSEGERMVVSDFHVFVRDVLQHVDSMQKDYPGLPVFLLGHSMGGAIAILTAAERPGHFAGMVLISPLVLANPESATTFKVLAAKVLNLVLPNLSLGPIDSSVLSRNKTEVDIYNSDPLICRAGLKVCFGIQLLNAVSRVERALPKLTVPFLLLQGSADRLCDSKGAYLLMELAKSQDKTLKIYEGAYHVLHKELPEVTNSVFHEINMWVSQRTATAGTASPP
The experiment in a line: In vitro competitive activity-based protein profiling (gel-based, FP-Rh or HT-01 probe). The assay is classed as biochemical. The settings on record: PC3 proteome, read-out: IC50 MGLL PC3 (Human). The procedure, abridged:
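Readout is SDS-PAGE of probe-labelled proteome after FP-Rh or HT-01 (1.0 μL, 50 μM stock) labelling for 30 min at room temperature. Beforehand, inhibitors at varying concentrations were preincubated 30 min at 37° C with human prefrontal cortex or cell membrane fractions at 1.0 mg/mL total protein.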

The target in assay [2] is T2, MAGL (Mus musculus, UniProt O35678).
T2 construct: from tissue; host or cells: brain of wild-type C57Bl/6J mice
T2 sequence (O35678 1-303): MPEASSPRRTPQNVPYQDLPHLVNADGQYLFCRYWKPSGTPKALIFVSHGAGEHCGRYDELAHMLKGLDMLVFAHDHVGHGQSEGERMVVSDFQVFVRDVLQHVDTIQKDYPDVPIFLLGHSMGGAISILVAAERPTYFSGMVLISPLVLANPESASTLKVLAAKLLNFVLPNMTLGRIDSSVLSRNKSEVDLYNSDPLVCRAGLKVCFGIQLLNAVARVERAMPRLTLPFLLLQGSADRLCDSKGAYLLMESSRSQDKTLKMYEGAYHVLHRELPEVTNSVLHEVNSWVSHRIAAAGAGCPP
The experiment in a line: Mouse brain proteomes from inhibitor treated mice (oral gavage, brain proteomes analyzed 4 h after administration). The assay is classed as in vivo, mouse (C57Bl/6J). Conditions: brain proteome 4 h after administration, read-out: % Inh 5 mg/kg MGLL (Mouse). The method, boiled down: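 Wild-type C57Bl/6J mice dosed orally in polyethylene glycol vehicle; brains removed 4 h post-dose and brain proteomes prepared and analysed for MAGL and serine hydrolase activity by previously established methods.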

A further assay addresses T3, MGLL (Mus musculus, UniProt O35678).
T3 construct: Brain; from tissue; host or cells: mouse brain proteome
T3 sequence (O35678 1-303): T2 sequence (O35678 1-303)
The experiment in a line: In vitro competitive activity-based protein profiling, mouse brain proteome. The assay is classed as biochemical. As for the experimental part:
[Worded in the source for another species; this species is reported under the same test.] (§1) Proteomes (human prefrontal cortex or cell membrane fractions) (50 μL, 1.0 mg/mL total protein concentration) were preincubated with varying concentrations of inhibitors at 37° C. After 30 min, FP—Rh or HT-01 (1.0 μL, 50 μM in DMSO) was added and the mixture was incubated for another 30 min at room temperature. Reactions were quenched with SDS loading buffer (15 μL-4×) and run on SDS-PAGE.

The target in a further assay is T4, ABHD6 (Mus musculus, UniProt Q8R2Y0).
T4 construct: Brain; from tissue; host or cells: mouse brain proteome
T4 sequence (Q8R2Y0 1-336): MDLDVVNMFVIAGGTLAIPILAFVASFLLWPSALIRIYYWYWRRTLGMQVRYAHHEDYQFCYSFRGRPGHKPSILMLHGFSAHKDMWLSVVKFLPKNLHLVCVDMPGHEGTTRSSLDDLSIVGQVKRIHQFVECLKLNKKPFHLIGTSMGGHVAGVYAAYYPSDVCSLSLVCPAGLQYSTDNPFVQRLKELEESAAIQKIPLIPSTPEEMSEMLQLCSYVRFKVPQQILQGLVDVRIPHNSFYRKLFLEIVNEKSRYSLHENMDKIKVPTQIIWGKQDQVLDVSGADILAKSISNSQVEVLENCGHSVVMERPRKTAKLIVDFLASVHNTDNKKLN
The experiment in a line: In vitro competitive activity-based protein profiling, mouse brain proteome, ABHD6. The assay is classed as biochemical. The settings on record: mouse. The protocol: [Worded in the source for another target; this target is reported under the same test.] as §1

For the molecule `CC(=O)N1CC2(CCN(c3cc(C(F)(F)F)ccc3CN3CCN(C(=O)OC(C(F)(F)F)C(F)(F)F)CC3)CC2)C1` [Example 216, 1,1,1,3,3,3-Hexafluoropropan-2-yl 4-(2-(2-acetyl-2,7-diazaspiro[3.5]nonan-7-yl)-4-(trifluoromethyl)benzyl)piperazine-1-carboxylate], the half-inhibitory concentration (IC50) at MAGL [1] is < 100 nM; on MGLL, < 100 nM; on ABHD6, > 1000 nM. The inhibition at 5 mg/kg on MAGL [2] was ≥ 75%.
